In patent publication US20250215029A1 (Recludix Pharma, Inc., priority 2022, published 2025) one finds IC50 data, which are given here for 13 compounds.

For one assay, the target named is T1, pY705-STAT3 in PBMC (Homo sapiens, UniProt P40763).
T1 construct: Cryopreserved Peripheral Blood Mononuclear Cells (PBMC) are from AllCells; host or cells: cryopreserved PBMC
Briefly: MSD-pSTAT-PBMC Assay (pSTAT3, IL-6 stimulated). The format is cell-based. The settings on record: compound 3 hrs, then 10 ng/mL IL-6 for 10 min. The essentials: (§1)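 Cells are preincubated with compound for 3 hrs, then stimulated for 10 min, IL-4 at 1 ng/mL driving STAT6 phosphorylation and IL-6 at 10 ng/mL driving STAT3. Phospho-STAT in lysates is quantified by MSD immunoassay, and IC50 is fitted after subtracting unstimulated wells.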

A further assay addresses T2, pY641-STAT6 in PBMC (Homo sapiens, UniProt P42226).
T2 construct: Cryopreserved Peripheral Blood Mononuclear Cells (PBMC) are from AllCells; host or cells: cryopreserved PBMC
T2 sequence (P42226 1-847): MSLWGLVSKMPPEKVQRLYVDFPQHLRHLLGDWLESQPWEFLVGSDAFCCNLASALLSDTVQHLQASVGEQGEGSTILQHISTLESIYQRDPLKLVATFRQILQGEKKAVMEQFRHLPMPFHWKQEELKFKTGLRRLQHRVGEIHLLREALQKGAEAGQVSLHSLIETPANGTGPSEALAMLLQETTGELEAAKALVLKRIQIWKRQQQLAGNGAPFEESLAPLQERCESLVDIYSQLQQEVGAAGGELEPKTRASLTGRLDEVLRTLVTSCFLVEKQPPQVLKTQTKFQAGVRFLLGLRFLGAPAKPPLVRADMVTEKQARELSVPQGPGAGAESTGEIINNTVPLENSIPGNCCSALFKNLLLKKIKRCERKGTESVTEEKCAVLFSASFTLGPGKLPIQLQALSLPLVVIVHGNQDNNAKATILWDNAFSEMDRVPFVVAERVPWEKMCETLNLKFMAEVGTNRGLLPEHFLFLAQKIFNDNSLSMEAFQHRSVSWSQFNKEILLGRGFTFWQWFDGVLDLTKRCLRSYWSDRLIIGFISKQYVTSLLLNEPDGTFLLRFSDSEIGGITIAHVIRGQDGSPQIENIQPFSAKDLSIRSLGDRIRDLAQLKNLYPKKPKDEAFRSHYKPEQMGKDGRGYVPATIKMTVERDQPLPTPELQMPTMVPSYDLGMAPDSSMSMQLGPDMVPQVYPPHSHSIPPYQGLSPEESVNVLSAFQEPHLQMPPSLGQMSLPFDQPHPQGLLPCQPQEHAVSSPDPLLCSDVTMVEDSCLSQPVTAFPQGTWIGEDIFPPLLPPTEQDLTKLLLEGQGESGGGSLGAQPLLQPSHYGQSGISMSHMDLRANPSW
Kind of assay: MSD-pSTAT-PBMC Assay (pSTAT6, IL-4 stimulated). Particulars: compound 3 hrs, then 1 ng/mL IL-4 for 10 min. The format is cell-based. In outline:
as §1

Where [1] appears, read: PBMC, Table 115, read-out: STAT3.
Where [2] appears, read: PBMC, Table 115, read-out: STAT6.
Setting [3] is: PBMC, Table 1114, read-out: pSTAT3.
The mark [4] stands for this setting: PBMC, Table 1114, read-out: pSTAT6.

Like-named read-outs stand apart in the source and are kept apart here. Some results are limits rather than exact numbers.

T1 sequence (P40763 whole entry): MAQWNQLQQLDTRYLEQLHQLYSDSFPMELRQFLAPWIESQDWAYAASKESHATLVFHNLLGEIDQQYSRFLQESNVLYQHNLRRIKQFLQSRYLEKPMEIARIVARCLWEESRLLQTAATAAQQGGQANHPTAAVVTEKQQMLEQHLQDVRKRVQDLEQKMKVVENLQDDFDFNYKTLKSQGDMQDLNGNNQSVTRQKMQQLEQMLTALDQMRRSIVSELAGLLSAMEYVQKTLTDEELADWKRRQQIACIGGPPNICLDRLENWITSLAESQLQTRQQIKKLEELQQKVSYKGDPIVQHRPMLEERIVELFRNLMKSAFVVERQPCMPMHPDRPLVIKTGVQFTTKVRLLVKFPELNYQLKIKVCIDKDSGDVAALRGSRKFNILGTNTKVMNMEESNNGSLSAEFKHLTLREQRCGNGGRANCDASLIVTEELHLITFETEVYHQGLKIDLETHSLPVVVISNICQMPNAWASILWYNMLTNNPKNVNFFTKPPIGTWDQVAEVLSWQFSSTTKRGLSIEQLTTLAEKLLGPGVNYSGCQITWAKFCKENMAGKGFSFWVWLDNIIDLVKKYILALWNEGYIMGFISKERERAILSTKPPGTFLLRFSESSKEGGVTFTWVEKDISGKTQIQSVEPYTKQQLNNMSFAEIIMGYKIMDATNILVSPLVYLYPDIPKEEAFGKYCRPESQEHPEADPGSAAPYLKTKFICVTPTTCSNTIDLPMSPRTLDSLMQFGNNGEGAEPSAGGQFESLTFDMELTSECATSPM

As to `CC(C)CC(=O)SCCOP(=O)(OCOC(=O)O[C@@H]1CCOC1)C(F)(F)c1ccc2sc(C(=O)N[C@H]3CCCC[C@H]4CC[C@@H](C(=O)N5C[C@H](c6cc[nH]c(=O)c6)[C@@H](C#N)C5)N4C3=O)cc2c1` (single isomer, unassigned) [Compound 1094], the IC50 on pY705-STAT3 in PBMC (setting [1]) is 1000 to 3000 nM; on pY641-STAT6 in PBMC (setting [2]), 100 to 1000 nM.

With `CC(C)CC(=O)SCCOP(=O)(OCOC(=O)O[C@H]1CCOC1)C(F)(F)c1ccc2sc(C(=O)N[C@H]3CCCC[C@H]4CC[C@@H](C(=O)N5C[C@H](c6cc[nH]c(=O)c6)[C@@H](C#N)C5)N4C3=O)cc2c1` (single isomer, unassigned) [Compound 1097], the IC50 at pY705-STAT3 in PBMC (setting [1]) fell in the range of 1000 to 3000 nM; at pY641-STAT6 in PBMC (setting [2]), 100 to 1000 nM.

Consider `CC(C)CC(=O)SCCOP(=O)(OCOC(=O)OC(C)C)C(F)(F)c1ccc2ccc(C(=O)N[C@H]3CCCC[C@H]4CC[C@@H](C(=O)N5C[C@H](c6cc[nH]c(=O)c6)[C@@H](C#N)C5)N4C3=O)cc2c1` (single isomer, unassigned) [Compound 1100], for which the IC50 on pY705-STAT3 in PBMC (setting [1]) is 100 to 1000 nM; on pY641-STAT6 in PBMC (setting [2]) it was under 100 nM.

In the case of `CCCOC(=O)[C@H](C)NP(=O)(Oc1ccccc1)C(F)c1ccc2sc(C(=O)N[C@H]3CCCC[C@H]4CC[C@@H](C(=O)N5C[C@@H](c6cccnc6)CC56CC6)N4C3=O)cc2c1` (stereo in doubt) [Compound 457, propyl (((R)-fluoro(2-(((3S,6S,10aS)-5-oxo-3-((R)-6-(pyridin-3-yl)-4-azaspiro[2.4]heptane-4-carbonyl)decahydropyrrolo[1,2-a]azocin-6-yl)carbamoyl)benzo [b]thiophen-5-yl)methyl)(phenoxy)phosphoryl)-L-alaninate], the IC50 at pY705-STAT3 in PBMC (setting [1]) is over 3000 nM; against pY641-STAT6 in PBMC (STAT6, PBMC, Table 115), under 100 nM.

For the compound `CC(C)(C)C(=O)SCCOP(=O)(OCCSC(=O)C(C)(C)C)C(F)(F)c1ccc2sc(C(=O)N[C@H]3CC4(CC[C@H]5CC[C@@H](C(=O)N6CC(c7cccnc7)C6)N5C3=O)CC4)cc2c1` [Compound 130, S,S′-((((difluoro(2-(((3′S,6′S,10a′S)-5′-oxo-3′-(3-(pyridin-3-yl)azetidine-1-carbonyl)octahydro-5′H-spiro [cyclopropane-1,8′-pyrrolo[1,2-a]azocin]-6′-yl)carbamoyl)benzo[b]thiophen-5-yl)methyl)phosphoryl)bis (oxy))bis (ethane-2,1-diyl)) bis(2,2-dimethylpropane-thioate)], the IC50 at pY705-STAT3 in PBMC (setting [3]) was under 100 nM; on pY641-STAT6 in PBMC (setting [4]), over 3000 nM.

For the compound `CCCC(=O)SCCOP(=O)(OCCSC(=O)CCC)C(F)(F)c1ccc2sc(C(=O)N[C@H]3CCCC[C@H]4CC[C@@H](C(=O)N(C)c5ccc6nnccc6c5)N4C3=O)cc2c1` [Compound 131, S,S′-(((((2-(((3S,6S,10aS)-3-(cinnolin-6-yl(methyl)carbamoyl)-5-oxodecahydro-pyrrolo[1,2-a]azocin-6-yl)carbamoyl)benzo[b]thiophen-5-yl)difluoromethyl)phosphoryl)bis (oxy))bis(ethane-2,1-diyl)) dibutanethioate], the IC50 at pY705-STAT3 in PBMC (setting [3]) is 100 to 1000 nM; on pY641-STAT6 in PBMC (setting [4]) it was under 100 nM.

Take `CC(C)(C)C(=O)SCCOP(=O)(OCCSC(=O)C(C)(C)C)C(F)(F)c1ccc2sc(C(=O)N[C@H]3CCC4(CC4)C[C@H]4CC[C@@H](C(=O)N5CC(c6cccnc6)C5)N4C3=O)cc2c1` [Compound 132, S,S′-((((difluoro(2-(((3′S,6′S,10a′R)-5′-oxo-3′-(3-(pyridin-3-yl)azetidine-1-carbonyl)octahydro-1′H-spiro [cyclopropane-1,9′-pyrrolo[1,2-a]azocin]-6′-yl)carbamoyl)benzo[b]thiophen-5-yl)methyl)phosphoryl)bis (oxy))bis(ethane-2,1-diyl))bis(2,2-dimethylpropane-thioate)]: the IC50 on pY705-STAT3 in PBMC (setting [3]) is under 100 nM; at pY641-STAT6 in PBMC (setting [4]), over 3000 nM.

Turning to `CCCC(=O)SCCOP(=O)(Oc1ccccc1)C(F)(F)c1ccc2sc(C(=O)N[C@H]3CCC[C@H]4CC[C@@H](C(=O)N5CC(c6cccnc6)C5)N4C3=O)cc2c1` (stereo partly drawn) [Compound 136, S-(2-(((difluoro(2-(((3S,6S,9aS)-5-oxo-3-(3-(pyridin-3-yl)azetidine-1-carbonyl)octahydro-1H-pyrrolo[1,2-a]azepin-6-yl)carbamoyl)benzo[b]thiophen-5-yl)methyl) (phenoxy)phosphoryl)oxy)ethyl) butanethioate], the IC50 against pY705-STAT3 in PBMC (pSTAT3, PBMC, Table 1114) is under 100 nM; against pY641-STAT6 in PBMC (pSTAT6, PBMC, Table 1114), 1000 to 3000 nM.

As to `CCCC(=O)SCCOP(=O)(Oc1cccc2ccccc12)C(F)(F)c1ccc2sc(C(=O)N[C@H]3CCC[C@H]4CC[C@@H](C(=O)N5CC(c6cccnc6)C5)N4C3=O)cc2c1` (stereo partly drawn) [Compound 140, S-(2-(((difluoro(2-(((3S,6S,9aS)-5-oxo-3-(3-(pyridin-3-yl)azetidine-1-carbonyl)octahydro-1H-pyrrolo[1,2-a]azepin-6-yl)carbamoyl)benzo[b]thiophen-5-yl)methyl) (naphthalen-1-yloxy)phosphoryl)oxy)ethyl) butanethioate], the IC50 on pY705-STAT3 in PBMC (pSTAT3, PBMC, Table 1114) is under 100 nM; against pY641-STAT6 in PBMC (pSTAT6, PBMC, Table 1114), 1000 to 3000 nM.

Regarding `CN(C(=O)[C@@H]1CC[C@@H]2C/C=C\C[C@H](NC(=O)c3cc4cc(C(F)(F)P(=O)(OCOC(=O)C(C)(C)C)OCOC(=O)C(C)(C)C)ccc4[nH]3)C(=O)N21)c1ccccc1` [Compound 141, (((difluoro(2-(((3S,6S,10aR,Z)-3-(methyl (phenyl)carbamoyl)-5-oxo-1,2,3,5,6,7,10,10a-octahydropyrrolo [1,2-a]azocin-6-yl)carbamoyl)-1H-indol-5-yl)methyl)phosphoryl)bis (oxy))bis (methylene) bis(2,2-dimethylpropanoate)], the IC50 on pY705-STAT3 in PBMC (setting [3]) and at pY641-STAT6 in PBMC (setting [4]) was 100 to 1000 nM in each case.

Consider `CN(C(=O)[C@@H]1CC[C@@H]2CCCC[C@H](NC(=O)c3cc4cc(C(F)(F)P(=O)(OCOC(=O)C(C)(C)C)OCOC(=O)C(C)(C)C)ccc4[nH]3)C(=O)N21)c1ccccc1` [Compound 142, (((difluoro(2-(((3S,6S,10aS)-3-(methyl(phenyl)carbamoyl)-5-oxodecahydro-pyrrolo[1,2-a]azocin-6-yl)carbamoyl)-1H-indol-5-yl)methyl)phosphoryl)bis(oxy)) bis(methylene) bis(2,2-dimethylpropanoate)], for which the IC50 at pY705-STAT3 in PBMC (setting [3]) was 100 to 1000 nM; on pY641-STAT6 in PBMC (setting [4]), under 100 nM.

`CN(C)S(=O)(=O)N1CCN(C(=O)[C@@H]2CC[C@@H]3CCCC[C@H](NC(=O)c4cc5cc(C(F)(F)P(=O)(OCOC(=O)C(C)(C)C)OCOC(=O)C(C)(C)C)ccc5s4)C(=O)N32)CC1` [Compound 145, ((((2-(((3S,6S,10aS)-3-(4-(N,N-dimethylsulfamoyl)piperazine-1-carbonyl)-5-oxodecahydro-pyrrolo[1,2-a]azocin-6-yl)carbamoyl)benzo[b]thiophen-5-yl)difluoromethyl)phosphoryl)bis (oxy))bis (methylene) bis(2,2-dimethylpropanoate)]: the IC50 on pY705-STAT3 in PBMC (setting [3]) and on pY641-STAT6 in PBMC (setting [4]) was under 100 nM throughout.

On to `CC(C)(C)C(=O)OCOP(=O)(OCOC(=O)C(C)(C)C)C(F)(F)c1ccc2sc(C(=O)N[C@@]3(C)CCCC[C@H]4CC[C@@H](C(=O)N5CC(c6ccccn6)C5)N4C3=O)cc2c1` [Compound 150, (((difluoro(2-(((3S,6S,10aS)-6-methyl-5-oxo-3-(3-(pyridin-2-yl)azetidine-1-carbonyl)decahydropyrrolo [1,2-a]azocin-6-yl)carbamoyl)benzo[b]thiophen-5-yl)methyl)phosphoryl)bis (oxy))bis (methylene) bis(2,2-dimethyl-propanoate)], for which the IC50 was 100 to 1000 nM on pY705-STAT3 in PBMC (setting [3]) and over 3000 nM at pY641-STAT6 in PBMC (setting [4]).
